Test results from patent US9845330B2, “6-nitro-2,3-dihydroimidazo[2,1-b]oxazoles and a process for the preparation thereof” (priority 2013, dated 2017).
≈ marks a conversion by molar mass, not a printed value. Where two headings read alike, the source gives them in different places.

Key:
M. tuberculosis H37Rv = experiment: Combination studies, checkerboard method; assay type: cell-based, Mycobacterium tuberculosis; settings: for MIC alone / MIC with IA25 / MIC with IIA3 / MIC with Ethambutol / MIC with INH / MIC with Rifampicin: checkerboard; for MIC with IA25: in combination with IA25; for MIC with IIA3: in combination with IIA3; for MIC with Ethambutol: in combination with Ethambutol; for MIC with INH: in combination with INH; for MIC with Rifampicin: in combination with Rifampicin
Experimental: The efficacy of compounds IA25 and IIA3 (conc range 4 μg/ml to 0.007 μg/ml) in combination with currently used anti-TB drugs such as rifampicin, isoniazid and ethambutol (each drug tested at conc range 4 μg/ml to […]), wherein the ratio of drugs was ranging between 0.1% to 50%, was determined in vitro using checkerboard method. The checkerboard procedure was performed based on the MIC values by the broth microdilution method. The checkerboard method was performed in 96 well U bottom microtitre plates. 100 microliters of 4× concentration of drug was added to first column of the plate. 50 microliters from first column was transferred to second column and was serially diluted in horizontal manner upto column 10 of the plate. Seven dilutions of 4× concentration of compound were prepared in eppendorfs and fifty microliters of each concentration was added vertically starting from eleventh column of row eight to row second of the plate. First row of the plate served as drug control. 100 microliters of 1:10 diluted of 1 Mc Farland inoculum was added to each well of the plate. Plates were then incubated at 37° C. for 14 days. MIC of drug alone and in presence of compound and vice versa was observed visually. […] The FIC index value for each concentration of two-drug combination was calculated and the minimum value was adopted.

[1] = system: M. tuberculosis H37Rv (ATCC 27294); experiment: MIC by broth dilution method, M. tuberculosis H37Rv; assay type: cell-based; settings: Mycobacterium tuberculosis
[2] = system: macrophage J774 cells line; experiment: Cytotoxicity assay (MTT) in macrophage J774 cells; assay type: cell-based; settings: J774 cells, 24 hrs, MTT
Method in brief: (§1)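 J774 cells seeded at 3×10^4 cells/cm^2 in RPMI with FCS reduced to 5%, then exposed to compounds at 40 μg/ml for 24 hrs. MTT reduction read at 450 nm; percentage cytotoxicity calculated relative to untreated cells.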

[3] = Cytotoxicity assay (MTT) in macrophage J774 cells; assay type: cell-based; settings: mouse, J774 macrophage cells; also called safety index
Method in brief: as §1

[4] = In vivo pharmacokinetics, oral, mice; design: species or system Balb/c mice; Ka: unit not given here; settings: 5 mg/kg oral, plasma
Experimental: Compounds were administered orally to mice (Balb/c mice) at a dose of 5 mg/kg as a suspension in 0.5% CMC and Tween 80. Samples were derived from plasma at different time points i.e. 0.16 h, 0.5 h, 1 h, 2 h, 4 h, 6 h, 8 h and 24 h, which were then analysed by LC-MS/MS to generate the required pharmacokinetic parameters.

[5] = FIC A, drug in combination with IA25
[6] = FIC A, drug in combination with IIA3
[7] = FIC B, compound in combination with Ethambutol
[8] = FIC B, compound in combination with INH
[9] = FIC B, compound in combination with Rifampicin
[10] = 504 h, broth dilution, 3 weeks, read-out: MIC M. tb H37Rv
[11] = 504 h, read-out: MIC M. tb H37Rv, broth dilution, 3 weeks
[12] = read-out: MIC value, text summary: sensitive H37Rv as well as MDR and XDR strains of M. tuberculosis

Row | SMILES | MIC alone (M. tuberculosis H37Rv) | MIC [1, 10] | Cytotoxicity [2] | selectivity ratio at 24 h, 40 μg/ml [3] | CLB [4] | Ka [4] | Vdarea [4] | t1/2absorption [4] | Cmax ([4]; Balb/c, mouse, po, 5 mg/kg) | AUC ([4]; Balb/c, mouse) | Tmax ([4]; Balb/c, mouse, read-out: Tmax) | MIC [1, 12] | also measured
1 | CC[C@@H](CO)NCCN[C@@H](CC)CO [Ethambutol, reference compound] | 1 µg/mL |  |  |  |  |  |  |  |  |  |  |  | FIC (MIC combination/MIC alone) (M. tuberculosis H37Rv; [5]): FIC A = 0.25; FIC (MIC combination/MIC alone) (M. tuberculosis H37Rv; [6]): FIC A = 0.5; MIC with IA25 (M. tuberculosis H37Rv): 0.25 µg/mL; MIC with IIA3 (M. tuberculosis H37Rv): 0.5 µg/mL
2 | C[C@]1(COc2ccc(-n3cc(COc4ccc(OC(F)(F)F)cc4)nn3)cc2)Cn2cc([N+](=O)[O-])nc2O1 [IA25] | 0.12 µg/mL | 0.12 µg/mL (≈ 0.225 µM) | >40 µg/mL | > 10 | 7 mL/h/kg | 1.71 | 0.36 L/kg | 24.6 min | 1020 nM | 14 µM·h | 2 h |  | FIC (MIC combination/MIC alone) (M. tuberculosis H37Rv; [7]): FIC B = 0.5; FIC (MIC combination/MIC alone) (M. tuberculosis H37Rv; [8]): FIC B = 0.25; FIC (MIC combination/MIC alone) (M. tuberculosis H37Rv; [9]): FIC B = 0.5; MIC with Ethambutol (M. tuberculosis H37Rv): 0.06 µg/mL; MIC with INH (M. tuberculosis H37Rv): 0.03 µg/mL; MIC with Rifampicin (M. tuberculosis H37Rv): 0.06 µg/mL; FIC Index (FIC A + FIC B) (M. tuberculosis H37Rv; combination with Ethambutol): 0.75; FIC Index (FIC A + FIC B) (M. tuberculosis H37Rv; combination with INH): 0.5; Observations (M. tuberculosis H37Rv; combination with INH (isoniazid)): synergistic effect; FIC Index (FIC A + FIC B) (M. tuberculosis H37Rv; combination with Rifampicin): 0.75; Cmax [4]: 1020 nM
3 | C[C@]1(COc2cccc(-n3cc(COc4ccc(OC(F)(F)F)cc4)nn3)c2)Cn2cc([N+](=O)[O-])nc2O1 [IA33] |  | 0.12 µg/mL (≈ 0.225 µM) | >40 µg/mL | > 10 | 72 mL/h/kg | 0.478 | 0.25 L/kg | 86.88 min | 595 nM | 3.95 µM·h | 2 h |  | 
4 | C[C@]1(COc2ccc(-c3cc(COc4ccc(OC(F)(F)F)cc4)on3)cc2)Cn2cc([N+](=O)[O-])nc2O1 [IC13, (R)-2-{4-[5-(4-trifluoromethoxyphenoxymethyl)isoxazol-3-yl]phenoxymethyl}-2,3-dihydro-2-methyl-6-nitroimidazo[2,1-b]oxazole] |  |  | >40 µg/mL | > 10 | 3.3 mL/h/kg | 1.21 | 0.13 L/kg | 34.2 min | 2530 nM | 33.7 µM·h | 2 h | < 1 µg/mL | MIC [1, 11]: 0.12 µg/mL (≈ 0.225 µM)
5 | C[C@]1(COc2ccc(-c3cc(COc4ccc(F)cc4)on3)cc2)Cn2cc([N+](=O)[O-])nc2O1 [IC14, (R)-2-{4-[5-(4-fluorophenoxymethyl)isoxazol-3-yl]phenoxymethyl}-2,3-dihydro-2-methyl-6-nitroimidazo[2,1-b]oxazole] |  |  | >40 µg/mL | > 10 | 202 mL/h/kg | 1.056 | 1.54 L/kg | 39.4 min | 353 nM | 1.55 µM·h | 2 h | < 1 µg/mL | MIC [1, 11]: 0.06 µg/mL (≈ 0.129 µM)
6 | C[C@]1(COc2ccc(NC(=O)Nc3ccc(C(F)(F)F)cc3)cc2)Cn2cc([N+](=O)[O-])nc2O1 [IIA3, (R)-1-(4-trifluoromethylphenyl)-3-{4-(2-methyl-6-nitro-2,3-dihydroimidazo[2,1-b]oxazol-2-yl)methoxyphenyl}urea] | 0.5 µg/mL | 0.12 µg/mL (≈ 0.251 µM) | >40 µg/mL | > 10 |  |  |  |  |  |  |  | < 1 µg/mL | FIC (MIC combination/MIC alone) (M. tuberculosis H37Rv; [7]): FIC B = 0.25; FIC (MIC combination/MIC alone) (M. tuberculosis H37Rv; [8]): FIC B = 0.25; FIC (MIC combination/MIC alone) (M. tuberculosis H37Rv; [9]): FIC B = 0.25; MIC with Ethambutol (M. tuberculosis H37Rv): 0.12 µg/mL; MIC with INH (M. tuberculosis H37Rv): 0.12 µg/mL; MIC with Rifampicin (M. tuberculosis H37Rv): 0.12 µg/mL; FIC Index (FIC A + FIC B) (M. tuberculosis H37Rv; combination with Ethambutol): 0.75; FIC Index (FIC A + FIC B) (M. tuberculosis H37Rv; combination with INH): 0.75; FIC Index (FIC A + FIC B) (M. tuberculosis H37Rv; combination with Rifampicin): 0.5; Observations (M. tuberculosis H37Rv; combination with Rifampicin): synergistic effect
7 | C[C@]1(COc2ccc(S(=O)(=O)N3CCC(c4ccccc4)CC3)cc2)Cn2cc([N+](=O)[O-])nc2O1 [IIC8, (R)-2-{4-[(4-phenylpiperidin-1-yl)sulfonyl]phenoxymethyl}-2,3-dihydro-2-methyl-6-nitroimidazo[2,1-b]oxazole] |  | 0.5 µg/mL (≈ 1 µM) | >40 µg/mL | > 10 |  |  |  |  |  |  |  | 0.5 µg/mL (≈ 1 µM) | 
8 | C[C@]1(COc2ccc(S(=O)(=O)N3CCCC3)cc2)Cn2cc([N+](=O)[O-])nc2O1 [IIC9, (R)-2-{4-(pyrrolidin-1-ylsulfonyl)phenoxymethyl}-2,3-dihydro-2-methyl-6-nitroimidazo[2,1-b]oxazole] |  | 1 µg/mL (≈ 2.45 µM) | >40 µg/mL | > 10 |  |  |  |  |  |  |  |  | 
9 | C[C@]1(COc2ccc(S(=O)(=O)N3CCOCC3)cc2)Cn2cc([N+](=O)[O-])nc2O1 [IIC10, (R)-2-{4-(morpholinsulfonyl)phenoxymethyl}-2,3-dihydro-2-methyl-6-nitroimidazo[2,1-b]oxazole] |  | 0.5 µg/mL (≈ 1.18 µM) | >40 µg/mL | > 10 |  |  |  |  |  |  |  | 0.5 µg/mL (≈ 1.18 µM) | 
10 | NNC(=O)c1ccncc1 [INH, isoniazid, reference compound] | 0.25 µg/mL |  |  |  |  |  |  |  |  |  |  |  | FIC (MIC combination/MIC alone) (M. tuberculosis H37Rv; [5]): FIC A = 0.25; FIC (MIC combination/MIC alone) (M. tuberculosis H37Rv; [6]): FIC A = 0.5; MIC with IA25 (M. tuberculosis H37Rv): 0.06 µg/mL; MIC with IIA3 (M. tuberculosis H37Rv): 0.12 µg/mL
11 | C[C@]1(COc2ccc(N3CCC(Oc4ccc(OC(F)(F)F)cc4)CC3)cc2)Cn2cc([N+](=O)[O-])nc2O1 [OPC-67683, reference compound] |  |  |  |  | 4.3 mL/h/kg |  | 0.76 L/kg | 38.4 min |  | 9.32 µM·h |  |  | Cmax [4]: 668 nM; Tmax [4]: 2.00 h
12 | CO[C@H]1/C=C/O[C@@]2(C)Oc3c(C)c(O)c4c(O)c(c(/C=N/N5CCN(C)CC5)c(O)c4c3C2=O)NC(=O)/C(C)=C\C=C\[C@H](C)[C@H](O)[C@@H](C)[C@@H](O)[C@@H](C)[C@H](OC(C)=O)[C@@H]1C [Rifampicin, reference compound] | 0.12 µg/mL |  |  |  |  |  |  |  |  |  |  |  | FIC (MIC combination/MIC alone) (M. tuberculosis H37Rv; [5]): FIC A = 0.25; FIC (MIC combination/MIC alone) (M. tuberculosis H37Rv; [6]): FIC A = 0.25; MIC with IA25 (M. tuberculosis H37Rv): 0.03 µg/mL; MIC with IIA3 (M. tuberculosis H37Rv): 0.06 µg/mL
